Literature values as cited in patent US6751290B2, “Radiographic assessment of tissue after exposure to a compound” (Veritas Pharmaceuticals, Inc., priority 1998, dated 2004).

Details: experimental logP values, commonly used non-ionic radiographic contrast agents (Hansch et al. 1995)

logP	SMILES
−2.05	COCC(=O)Nc1c(I)c(C(=O)NCC(O)CO)c(I)c(C(=O)N(C)CC(O)CO)c1I (stereo not drawn) [Iopromide]
−1.86	CC(=O)Nc1c(I)c(C(=O)N[C@H]2C(O)O[C@H](CO)[C@@H](O)[C@@H]2O)c(I)c(N(C)C(C)=O)c1I (stereo partly drawn) [Metrizamide]
−3.05	CC(=O)N(CC(O)CO)c1c(I)c(C(=O)NCC(O)CO)c(I)c(C(=O)NCC(O)CO)c1I (stereo not drawn) [Iohexol]
